Blank lines part the entries; values can stand above or below the compound they belong to.
Columns and labels:
Experiment in all cases: MTT test of cell viability, 72 h treatment
Assay type in all cases: cell-based
[1] = test system: U87-TxR resistant human glioblastoma cell line; settings: for IC50: MTT, 72 h, MDR line; for Relative Resistance: ratio IC50 U87-TxR / IC50 U87
Experimental: (§1) The MTT test was used to evaluate the effect of the compounds on cell viability. The test relies on the reduction of tetrazolium salt (MTT) to formazan, which is catalyzed by the mitochondrial enzyme succinate dehydrogenase. The activity of succinate dehydrogenase, which is indicative of mitochondrial respiration, is taken as an indirect measure of the metabolic activity of the cell, and thus its viability. The MTT-formazan produced is a purple-colored product, whose absorbance is measured at a wavelength of 570 nm. • a) To determine the inhibition of cell growth by SC, different cell lines were exposed to increasing concentrations of SC (5, 10, 25, 50, and 100 μM). The cells were seeded in 96-well microtiter plates at a density of 2,000 cells per well for NCI-H460, NCI-H460/R, DLD1 and DLD1-TxR, and 4,000 cells per well for MRC-5, U87, U87-TxR, and U251 in 100 μL of the appropriate medium. Control cells that received no treatment were also seeded at the same time. After 24 h for adaptation, the cells were treated with various concentrations of SC. After 72 h of treatment, 0.2 mg/ml MTT was added to each well in the appropriate cell culture medium. After 4 h of incubation at 37° C. with 5% CO2, the medium was removed, and 100 μL of DMSO were added to each well, to dissolve the formazan. The absorbance of the samples was measured at 570 nm using a Multiskan Sky Microplate spectrophotometer (ThermoFisher Scientific, USA). The results were analyzed using GraphPad Prism 8.0.2. software, and the IC50 values were determined by non-linear regression. • b) To test the interaction between SC and DOX in terms of cytotoxicity in different cell lines, cells were seeded in 96-well microtiter plates at a density of 2,000 cells per well for NCI-H460, NCI-H460/R, DLD1 and DLD1-TxR, and 4,000 cells per well for MRC-5, U87, U87-TxR, and U251 in 100 μl of the appropriate medium. SC (10 and 20 μM) was combined with increasing concentrations of DOX (20, 50, 100, 200, and 500 nM). The cells were treated with the simultaneous combinations for 72 h. After this period, 0.2 mg/ml MTT was added to each well, followed by 4 hours of incubation at 37° C. with 5% CO2. The medium was then removed, and DMSO was added to each well to dissolve the formazan.
(§2) The absorbance of the samples was measured at 570 nm using a Multiskan Sky Microplate spectrophotometer.
(§3) The analysis was carried out using GraphPad Prism software version 8.0.2 to determine the nature of the interaction, namely synergistic, antagonistic, or additive, between compounds. This was done using the computer software CalcuSyn, which is based on the combination index method. The method takes into account the concentration of compounds, the individual effect of each compound, as well as the effect of two compounds in combination. The values of the combination indices (CI) describe the nature of the interaction: Cl<0.9 indicates synergism, Cl>1.1 indicates antagonism, and Cl=0.9-1.1 indicates an additive effect. • c) To compare the resistance and selectivity profiles among SC, DOX, CON1, and CON2, human glioblastoma cell lines U87, U87-TxR, and MRC-5 were seeded at a density of 4,000 cells per well in 100 μL of the appropriate medium. In contrast, NCI-H460, NCI-H460/R, and MRC-5 were seeded at a density of 2,000 cells per well in 100 μL of the proper medium. The effect of SC derivatives LIG1 and LIG2 was also examined. The range of concentrations differed among the cell lines and the compounds. For LIG1 and LIG2, the range of concentrations for all cell lines was 50, 100, 200, 300, and 400 μM, while the same range was used for the MRC-5 in the case of SC, CON1, and CON2. DOX concentrations ranged 0.1, 0.25, 0.5, 1, and 2.5 μM for U87 and NCI-H460, and 0.25, 0.5, 1, 2.5, and 5 μM for U87-TxR, NCI-H460/R, and MRC-5. Five concentrations used for SC, CON1, and CON2 treatments varied in the range 1, 2.5, 5, 10, 25, 50, and 100 μM. The treatment lasted 72 h. […]

[2] = test system: NCI-H460/R resistant human non-small cell lung carcinoma cell line; settings: for IC50: MTT, 72 h, MDR line; for Relative Resistance: ratio IC50 NCI-H460/R / IC50 NCI-H460
Experimental: as §1, §2, §3

[3] = test system: MRC-5 human lung fibroblast cell line
Experimental: as §1, §2, §3

[4] = test system: NCI-H460 human non-small cell lung carcinoma cell line; settings: for IC50: MTT, 72 h; for Selectivity Index: ratio IC50 MRC-5 (2,000 cells per well) / IC50 NCI-H460
Experimental: as §1
as §3, with “h. After the treatment period, 0.2 mg/ml MTT in the appropriate cell culture medium was added to each well.” for “h.”

[5] = test system: U87 human glioblastoma cell line; settings: for IC50: MTT, 72 h; for Selectivity Index: ratio IC50 MRC-5 (4,000 cells per well) / IC50 U87
Experimental: as §1
as §3, with “h. After the treatment period, 0.2 mg/ml MTT in the appropriate cell culture medium was added to each well.” for “h.”

[6] = Homo sapiens, NCI-H460, DOX only

IC50 ([1]; Homo sapiens, U87-TxR, DOX only): 1.32 µM
IC50 [2, 6]: 2.5 µM
IC50 [4, 6]: 0.128 µM
IC50 ([5]; Homo sapiens, DOX only): 0.1 µM
Compound: COc1cccc2c1C(=O)c1c(O)c3c(c(O)c1C2=O)C[C@@](O)(C(=O)CO)C[C@@H]3O[C@H]1C[C@H](N)[C@H](O)[C@H](C)O1 [DOX, doxorubicin]
Relative Resistance [1]: 13.2
Relative Resistance [2]: 19.6
IC50 ([3]; Homo sapiens, MRC5, 72 h, 2,000 cells per well (non-small cell carcinoma experiments), DOX only): 0.588 µM
IC50 ([3]; Homo sapiens, MRC5, 72 h, 4,000 cells per well (glioblastoma experiments), DOX only): 0.295 µM
Selectivity Index [4]: 4.6
Selectivity Index [5]: 2.9

IC50 ([1]; Homo sapiens, U87-TxR): 39.2 µM
IC50 ([2]; Homo sapiens, NCI-H460): 47.4 µM
IC50 ([4]; Homo sapiens, NCI-H460): 40.3 µM
IC50 ([5]; Homo sapiens): 51.6 µM
Compound: C=C[C@](C)(O)CC[C@@H]1[C@@]2(C)CCCC(C)(C)[C@@H]2CC[C@@]1(C)O [SC, sclareol]
Relative Resistance [1]: 0.8
Relative Resistance [2]: 1.2
IC50 ([3]; Homo sapiens, MRC5, 72 h, 2,000 cells per well (non-small cell carcinoma experiments)): 64.1 µM
IC50 ([3]; Homo sapiens, MRC5, 72 h, 4,000 cells per well (glioblastoma experiments)): 75.9 µM
Selectivity Index [4]: 1.6
Selectivity Index [5]: 1.5

Compound: N1-((25,3S,4S,6R)-3-hydroxy-2-methyl-6-(((1S,3S)-3,5,12-trihydroxy-3-(2-hydroxyacetyl)-10-methoxy-6,11-dioxo-1,2,3,4,6,11-hexahydrotetracen-1-yl)oxy)tetrahydro-2H-pyran-4-yl)-N4-(3-((4-((R,E)-3-hydroxy-5-((1R,2R,4aS,8aS)-2-hydroxy-2,5,5,8a-tetramethyldecahydronaphthalen-1-yl)-3-methylpent-1-en-1-yl)benzyl)amino)propyl) succinamide [CON1]
IC50 [1]: 28.7 µM
Relative Resistance [1]: 3.3
IC50 [2]: 38.4 µM
Relative Resistance [2]: 3.9
IC50 ([3]; 2,000 cells per well (non-small cell carcinoma experiments)): 72.6 µM
IC50 ([3]; 4,000 cells per well (glioblastoma experiments)): 137 µM
IC50 [4]: 9.8 µM
Selectivity Index [4]: 7.4
IC50 [5]: 8.8 µM
Selectivity Index [5]: 15.6

From patent publication US20260174860A1, “HYBRID COMPOUNDS OF SCLAREOL AND DOXORUBICIN, THEIR SYNTHESIS AND APPLICATION” (INSTITUTE FOR BIOLOGICAL RESEARCH "SINISA STANKOVIC" - …, priority 2023, published 2026)
